Assay results from BigSolDB 2.1.

C[C@@H]1O[C@@H](O[C@H]2[C@H](Oc3cc(O)c4c(c3)O[C@H](c3ccc(O)cc3)CC4=O)O[C@H](CO)[C@@H](O)[C@@H]2O)[C@H](O)[C@H](O)[C@H]1O
solubility (mole fraction)
Details | 283.15 K | 288.15 K | 293.15 K | 298.15 K | 303.15 K | 308.15 K | 313.15 K | 318.15 K
in ethanol | 2.26e-05 | 2.57e-05 | 3.45e-05 | 4.05e-05 | 5.17e-05 | 6.25e-05 | 7.96e-05 | 0.000102
in water | 6.21e-07 | 7.14e-07 | 9.76e-07 | 2.87e-06 | 6.15e-06 | 1.1e-05 | 1.55e-05 | 2.32e-05
